Test results as given in publication PMC8213057, “Targeting ALK2: An Open Science Approach to Developing Therapeutics for the Treatment of Diffuse Intrinsic Pontine Glioma” (Journal of Medicinal Chemistry, 2020).

Assays:
AXL = molecular target: T1, AXL (Homo sapiens, UniProt P30530); conditions: 1 μM; Run 1, Run 2
T1 sequence (P30530 26-894): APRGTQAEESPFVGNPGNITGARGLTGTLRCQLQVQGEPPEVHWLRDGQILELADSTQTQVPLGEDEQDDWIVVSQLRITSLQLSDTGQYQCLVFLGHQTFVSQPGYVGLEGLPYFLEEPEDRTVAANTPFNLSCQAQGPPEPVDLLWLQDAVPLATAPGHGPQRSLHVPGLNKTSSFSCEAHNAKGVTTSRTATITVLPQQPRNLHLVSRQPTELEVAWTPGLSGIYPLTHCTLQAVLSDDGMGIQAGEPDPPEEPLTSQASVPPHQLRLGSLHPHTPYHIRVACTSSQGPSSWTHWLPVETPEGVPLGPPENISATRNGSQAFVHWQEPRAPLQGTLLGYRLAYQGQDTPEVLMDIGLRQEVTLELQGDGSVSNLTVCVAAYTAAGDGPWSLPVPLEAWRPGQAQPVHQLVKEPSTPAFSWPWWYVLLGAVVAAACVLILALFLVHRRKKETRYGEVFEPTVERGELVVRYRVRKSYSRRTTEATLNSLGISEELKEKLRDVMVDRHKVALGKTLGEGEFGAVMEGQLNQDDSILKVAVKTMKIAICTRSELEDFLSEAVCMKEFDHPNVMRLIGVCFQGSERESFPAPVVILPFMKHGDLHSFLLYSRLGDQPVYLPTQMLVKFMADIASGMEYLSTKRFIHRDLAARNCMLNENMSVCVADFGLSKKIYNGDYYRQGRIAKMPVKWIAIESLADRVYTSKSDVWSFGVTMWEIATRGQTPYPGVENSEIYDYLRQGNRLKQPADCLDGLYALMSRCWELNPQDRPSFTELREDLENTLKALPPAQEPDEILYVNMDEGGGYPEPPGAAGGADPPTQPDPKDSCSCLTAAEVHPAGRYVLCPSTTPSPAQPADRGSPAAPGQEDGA

c-Src = c-Src (Homo sapiens, UniProt P12931); conditions: 1 μM; Run 1, Run 2
LATS2 = molecular target: T2, LATS2 (Homo sapiens, UniProt Q9NRM7); conditions: 1 μM; Run 1, Run 2
T2 sequence (Q9NRM7 1-1088): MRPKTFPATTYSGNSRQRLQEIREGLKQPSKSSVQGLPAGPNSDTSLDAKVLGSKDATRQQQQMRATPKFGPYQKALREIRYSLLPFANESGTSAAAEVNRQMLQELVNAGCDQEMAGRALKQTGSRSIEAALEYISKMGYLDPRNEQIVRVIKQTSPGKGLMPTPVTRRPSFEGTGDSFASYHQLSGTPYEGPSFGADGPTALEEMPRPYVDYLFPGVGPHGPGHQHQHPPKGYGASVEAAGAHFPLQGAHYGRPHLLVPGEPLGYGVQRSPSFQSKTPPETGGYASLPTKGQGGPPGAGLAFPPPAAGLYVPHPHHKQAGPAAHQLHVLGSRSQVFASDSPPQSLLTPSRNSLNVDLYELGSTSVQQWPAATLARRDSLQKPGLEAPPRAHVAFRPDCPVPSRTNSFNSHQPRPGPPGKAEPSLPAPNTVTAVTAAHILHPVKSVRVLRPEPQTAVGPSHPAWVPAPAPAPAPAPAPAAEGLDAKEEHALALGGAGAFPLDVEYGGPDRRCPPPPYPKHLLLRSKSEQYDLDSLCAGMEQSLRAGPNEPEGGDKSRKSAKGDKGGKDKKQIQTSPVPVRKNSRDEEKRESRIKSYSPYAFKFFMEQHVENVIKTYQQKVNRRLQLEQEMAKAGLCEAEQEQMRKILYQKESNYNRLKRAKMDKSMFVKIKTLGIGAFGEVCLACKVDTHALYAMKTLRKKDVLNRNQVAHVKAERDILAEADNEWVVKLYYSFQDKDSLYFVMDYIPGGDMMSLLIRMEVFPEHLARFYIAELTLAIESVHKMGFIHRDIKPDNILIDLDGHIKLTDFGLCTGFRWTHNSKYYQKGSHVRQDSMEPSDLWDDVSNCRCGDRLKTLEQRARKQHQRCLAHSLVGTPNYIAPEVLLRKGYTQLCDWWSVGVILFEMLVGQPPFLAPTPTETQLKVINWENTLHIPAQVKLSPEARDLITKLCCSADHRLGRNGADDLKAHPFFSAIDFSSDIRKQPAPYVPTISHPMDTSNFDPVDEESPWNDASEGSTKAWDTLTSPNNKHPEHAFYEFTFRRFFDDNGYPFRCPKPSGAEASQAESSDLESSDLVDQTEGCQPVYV

RSK2 = RSK2 (Homo sapiens, UniProt P51812); conditions: 1 μM; Run 1, Run 2
TEC = molecular target: T3, TEC (Homo sapiens, UniProt P42680); conditions: 1 μM; Run 1, Run 2
T3 sequence (P42680 1-631): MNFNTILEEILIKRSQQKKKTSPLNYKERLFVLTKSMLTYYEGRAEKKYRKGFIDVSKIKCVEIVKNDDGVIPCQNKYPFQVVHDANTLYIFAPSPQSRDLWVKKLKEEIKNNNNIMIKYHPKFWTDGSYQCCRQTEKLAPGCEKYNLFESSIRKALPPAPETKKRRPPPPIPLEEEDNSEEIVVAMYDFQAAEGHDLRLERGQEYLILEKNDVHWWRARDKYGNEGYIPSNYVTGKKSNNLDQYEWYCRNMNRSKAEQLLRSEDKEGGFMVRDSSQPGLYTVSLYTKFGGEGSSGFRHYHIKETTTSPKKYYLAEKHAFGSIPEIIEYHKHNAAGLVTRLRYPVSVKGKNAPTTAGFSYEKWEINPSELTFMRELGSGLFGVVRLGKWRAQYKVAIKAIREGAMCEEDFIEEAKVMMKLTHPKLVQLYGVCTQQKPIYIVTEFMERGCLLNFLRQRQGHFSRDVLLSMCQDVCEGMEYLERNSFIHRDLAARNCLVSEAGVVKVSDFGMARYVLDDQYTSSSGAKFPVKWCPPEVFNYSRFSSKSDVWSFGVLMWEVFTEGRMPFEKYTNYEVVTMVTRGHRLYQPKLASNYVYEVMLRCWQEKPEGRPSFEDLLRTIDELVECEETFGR

CHK2 = CHK2 (Homo sapiens, UniProt O96017); test: biochemical; conditions: read-out: % enzyme activity, 1 μM; Run 1, Run 2
GRK5 = GRK5 (Homo sapiens, UniProt P34947); test: biochemical; conditions: read-out: % enzyme activity, 1 μM; Run 1, Run 2
NEK7 = NEK7 (Homo sapiens, UniProt Q8TDX7); test: biochemical; conditions: read-out: % enzyme activity, 1 μM; Run 1, Run 2
RIPK3 = RIPK3 (Homo sapiens, UniProt Q9Y572); test: biochemical; conditions: read-out: % enzyme activity, 1 μM; Run 1, Run 2
RIPK3, sequence (Q9Y572 whole entry): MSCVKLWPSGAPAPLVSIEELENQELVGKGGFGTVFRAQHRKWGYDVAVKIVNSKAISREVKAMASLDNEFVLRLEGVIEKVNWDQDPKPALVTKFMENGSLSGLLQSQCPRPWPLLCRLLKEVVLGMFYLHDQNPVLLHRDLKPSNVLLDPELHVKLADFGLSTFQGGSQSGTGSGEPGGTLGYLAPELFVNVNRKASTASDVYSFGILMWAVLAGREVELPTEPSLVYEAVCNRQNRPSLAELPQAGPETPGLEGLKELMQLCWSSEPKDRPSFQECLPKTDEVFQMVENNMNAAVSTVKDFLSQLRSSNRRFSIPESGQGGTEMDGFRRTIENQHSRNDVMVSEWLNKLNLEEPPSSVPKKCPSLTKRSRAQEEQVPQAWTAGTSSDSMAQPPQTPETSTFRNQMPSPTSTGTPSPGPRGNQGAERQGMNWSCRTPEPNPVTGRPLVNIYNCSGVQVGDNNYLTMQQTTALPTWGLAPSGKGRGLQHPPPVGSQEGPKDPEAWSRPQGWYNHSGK

GRK5, sequence (P34947 whole entry): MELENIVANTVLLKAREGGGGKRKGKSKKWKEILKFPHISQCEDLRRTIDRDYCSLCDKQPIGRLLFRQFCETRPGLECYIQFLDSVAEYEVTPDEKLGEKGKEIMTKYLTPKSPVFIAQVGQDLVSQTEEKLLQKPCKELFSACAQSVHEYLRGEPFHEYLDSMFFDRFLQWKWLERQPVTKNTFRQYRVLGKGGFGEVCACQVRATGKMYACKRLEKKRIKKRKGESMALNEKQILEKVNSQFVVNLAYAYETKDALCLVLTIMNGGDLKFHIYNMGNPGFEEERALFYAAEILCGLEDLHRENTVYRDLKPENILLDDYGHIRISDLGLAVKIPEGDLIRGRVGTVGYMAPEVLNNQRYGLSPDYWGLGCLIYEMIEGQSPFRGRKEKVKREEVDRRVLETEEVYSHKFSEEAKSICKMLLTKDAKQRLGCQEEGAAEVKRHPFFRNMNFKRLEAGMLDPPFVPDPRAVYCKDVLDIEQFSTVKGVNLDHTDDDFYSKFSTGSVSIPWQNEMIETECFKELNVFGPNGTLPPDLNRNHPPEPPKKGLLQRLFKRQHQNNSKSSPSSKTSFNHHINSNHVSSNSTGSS
NEK7, sequence (Q8TDX7 whole entry): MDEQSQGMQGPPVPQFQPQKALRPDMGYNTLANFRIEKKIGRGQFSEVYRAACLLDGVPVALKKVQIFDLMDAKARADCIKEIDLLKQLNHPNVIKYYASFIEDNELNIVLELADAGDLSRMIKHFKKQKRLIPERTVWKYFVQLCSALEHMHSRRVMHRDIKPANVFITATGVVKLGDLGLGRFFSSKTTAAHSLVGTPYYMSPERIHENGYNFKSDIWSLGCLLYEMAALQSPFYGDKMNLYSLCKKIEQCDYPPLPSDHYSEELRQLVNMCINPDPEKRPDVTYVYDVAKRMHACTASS
c-Src, sequence (P12931 whole entry): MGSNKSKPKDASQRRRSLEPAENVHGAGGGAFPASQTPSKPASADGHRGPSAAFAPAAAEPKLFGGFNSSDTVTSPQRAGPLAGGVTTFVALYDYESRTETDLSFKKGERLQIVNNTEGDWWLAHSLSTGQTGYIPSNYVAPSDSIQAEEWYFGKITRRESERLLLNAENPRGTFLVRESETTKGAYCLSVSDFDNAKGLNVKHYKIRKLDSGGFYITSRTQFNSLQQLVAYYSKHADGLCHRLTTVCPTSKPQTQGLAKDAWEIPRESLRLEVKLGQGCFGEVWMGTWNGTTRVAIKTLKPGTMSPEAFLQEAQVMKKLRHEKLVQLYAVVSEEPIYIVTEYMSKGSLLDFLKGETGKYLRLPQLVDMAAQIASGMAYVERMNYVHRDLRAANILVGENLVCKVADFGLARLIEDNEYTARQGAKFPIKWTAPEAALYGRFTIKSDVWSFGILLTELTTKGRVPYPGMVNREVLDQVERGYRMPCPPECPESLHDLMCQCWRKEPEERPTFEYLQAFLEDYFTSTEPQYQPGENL
RSK2, sequence (P51812 whole entry): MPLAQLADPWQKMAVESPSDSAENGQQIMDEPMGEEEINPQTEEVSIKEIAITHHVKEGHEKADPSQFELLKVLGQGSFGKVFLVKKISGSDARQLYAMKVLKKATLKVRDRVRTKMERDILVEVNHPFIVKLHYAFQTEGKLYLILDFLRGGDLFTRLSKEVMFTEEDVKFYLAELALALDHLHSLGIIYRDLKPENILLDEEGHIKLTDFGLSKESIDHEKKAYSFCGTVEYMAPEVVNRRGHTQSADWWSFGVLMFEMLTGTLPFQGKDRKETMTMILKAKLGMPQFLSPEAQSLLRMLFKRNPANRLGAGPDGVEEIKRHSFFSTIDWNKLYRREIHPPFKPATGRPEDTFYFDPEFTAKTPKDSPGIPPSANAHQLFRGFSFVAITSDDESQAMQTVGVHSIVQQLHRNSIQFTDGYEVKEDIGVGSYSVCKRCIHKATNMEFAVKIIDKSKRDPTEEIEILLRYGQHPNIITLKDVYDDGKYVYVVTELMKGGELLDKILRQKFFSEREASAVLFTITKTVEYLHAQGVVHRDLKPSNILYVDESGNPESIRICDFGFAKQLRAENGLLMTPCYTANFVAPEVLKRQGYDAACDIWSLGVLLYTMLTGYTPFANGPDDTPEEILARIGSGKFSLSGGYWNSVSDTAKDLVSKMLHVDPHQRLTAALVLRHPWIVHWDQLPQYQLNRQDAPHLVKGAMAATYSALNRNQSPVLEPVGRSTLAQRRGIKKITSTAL
CHK2, sequence (O96017 whole entry): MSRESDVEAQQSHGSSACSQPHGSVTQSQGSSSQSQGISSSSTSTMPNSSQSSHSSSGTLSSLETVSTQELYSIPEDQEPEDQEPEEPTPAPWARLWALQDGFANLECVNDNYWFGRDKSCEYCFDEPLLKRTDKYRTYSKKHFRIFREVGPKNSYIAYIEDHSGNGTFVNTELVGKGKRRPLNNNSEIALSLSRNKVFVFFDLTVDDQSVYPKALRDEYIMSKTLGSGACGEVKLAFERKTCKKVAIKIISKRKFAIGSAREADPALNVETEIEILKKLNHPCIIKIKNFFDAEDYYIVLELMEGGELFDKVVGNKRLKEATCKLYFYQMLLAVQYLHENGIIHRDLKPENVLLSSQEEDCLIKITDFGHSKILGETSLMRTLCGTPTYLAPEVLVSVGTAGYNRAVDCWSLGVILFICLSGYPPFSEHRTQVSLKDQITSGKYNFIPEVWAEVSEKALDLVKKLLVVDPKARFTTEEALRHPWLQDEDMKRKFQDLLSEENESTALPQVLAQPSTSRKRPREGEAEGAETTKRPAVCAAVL

Row | SMILES | % enzyme activity (AXL) | % enzyme activity (c-Src) | % enzyme activity (LATS2) | % enzyme activity (RSK2) | % enzyme activity (TEC) | remaining activity at 1 µM (CHK2) | remaining activity at 1 µM (GRK5) | remaining activity at 1 µM (NEK7) | remaining activity at 1 µM (RIPK3)
1 | COc1cc(-c2cncc(-c3ccc(N4CCN(C)CC4)cc3)c2C)cc(F)c1C(N)=O [Compound 26a, 2-Fluoro-6-methoxy-4-(4-methyl-5-(4-(4-methylpiperazin-1-yl)phenyl)pyridin-3-yl)benzamide] | 81.59% | 96.22% | 104.67% | 99.92% | 107.42% | 99.7% | 104% | 97.6% | 106%
2 | COc1cc(-c2cncc(-c3ccc(N4C[C@@H](C)N(C)[C@@H](C)C4)cc3)c2C)cc(F)c1C(N)=O [Compound 26c, 2-Fluoro-6-methoxy-4-(4-methyl-5-(4-((3R,5S)-3,4,5-trimethylpiperazin-1-yl)phenyl)pyridin-3-yl)benzamide] | 86.95% | 97.10% | 100.36% | 101.06% | 106.19% | 102% | 93.1% | 97.4% | 104%
